Tested on: hyperglycemic response to the oral administration of glucose
Test: Inhibition of the hyperglycemic response to oral glucose in the normoglycemic mouse
Type: in vivo, Swiss albino mice
Conditions: mice, administration at 3 mg/kg; reference 2-(1,2,3,4-tetrahydroxybutyl)-5-(2′,3′,4′-trihydroxybutyl)]pyrazine
Protocol: The hypoglycemic activity of the products of formula (I) was determined with respect to the hyperglycemic response to the oral administration of glucose in the normoglycemic mouse, according to the protocol described in Example 3. Swiss albino mice weighing between 22 and 26 g are left without nourishment for 2 hours. At the end of this period, the glycemia is measured and, immediately after, a dose of glucose (2 g/kg) is administered orally. Thirty minutes later, the glycemia is once again measured. The mice which respond by a hyperglycemia greater than 170 mg/dl are selected and used to detect the hypoglycemic activity of the products according to the invention. The mice thus chosen are divided into groups of at least 10 animals. Several groups receive doses of 3 to 50 mg/kg of product in a vehicle, such as water or a mixture of methylcellulose/tween and water, once daily by gastric intubation. The treatment lasts 4 days. On the 4th day, after the final treatment, the animals receive a dose of glucose (2 g/kg) and the glycemia is measured 20 to 40 minutes later. The percentage of inhibition of the hyperglycemic response to the administration of glucose is calculated with respect to the response measured in the group treated with the vehicle.

Structure (SMILES): O=C(OC[C@@H](O)[C@@H](O)[C@H](O)c1cnc(C[C@H](O)[C@H](O)COC(=O)C2CCCCC2)cn1)C1CCCCC1 [Example 1, 4,4′-O,O-Dicyclohexyloyl-2-[(1R,2S,3R)(1,2,3,4-tetrahydroxylbutyl)]-5-[(2′S,3′R)(2′,3′,4′-trihydroxybutyl)]pyrazine]
- relative activity with respect to the reference product: 149%
